# According to patent US20080293679A1, “Use of carotenoids and/or carotenoid derivatives/analogs for reduction/inhibition of certain negative effects of COX inhibitors” (priority 2005, published 2008):
# Like-named read-outs stand apart in the source and are kept apart here. Marks after values point to notes of the source that are not given here.
# How the values were obtained:
# [1] = Lipid peroxide (LOOH) formation in DAPC lipid vesicles with cholesterol (triiodide assay); assay type: biochemical
# Description: The ability of astaxanthin to block the pro-oxidant effects of rofecoxib was tested in lipid vesicles reconstituted from DAPC (10 mg/ml) in physiologic buffer (0.5 mM HEPES, 154 mM NaCl, pH=7.32). The lipid vesicles also contained cholesterol at a level that reproduced physiologic conditions (0.2 cholesterol to phospholipid mole ratio). The drug effects were tested in the vesicles following addition of astaxanthin, rofecoxib or the combination of these two agents at an identical concentration (250 nM). To measure lipid peroxide (LOOH) formation, we used an assay that measures the conversion of I2 to I3^− (triiodide). This reaction takes place in the presence of LOOH in a manner that can be measured photometrically at 365 nm, El-Saadani, 1989. […] The lipid peroxidation reaction occurs gradually under normal atmospheric oxygen conditions in a shaking water bath (37° C.).
# [2] = Peroxidation study in DLPC multilamellar vesicles, C/P 0.6; assay type: biochemical; details: C/P 0.6, carotenoid 10 μM, 48 hour
# Description: 1. Samples were prepared in a glass test tube as described in the table above. This gives a cholesterol/DLPC mole ratio of 0.6 and a final concentration of 10 μM for the carotenoids. Equal volumes of vehicle (20 μl chloroform) were added to control samples. 2. All samples were dried down under a steady stream of nitrogen gas while vortexing. 3. Samples were placed in a vacuum desiccator for 2 hours to remove residual solvent and protected from light. 4. Multi-lamellar vesicles (MLVs) were prepared by the method developed by Bangham and Standish (1965). After samples were removed from the vacuum desiccator, they were immediately resuspended in 1 ml of diffraction buffer warmed to room temperature and vortexed for 3 minutes to form MLVs.
# This assay is based on the principle of the oxidative capacity of lipid peroxides to convert I2 to I3^− (triiodide), which can be measured photometrically at 365 nm (el-Saadani et al., 1989). This assay is sensitive to peroxide concentrations as low as 10 μM.
# 1. Samples were placed in a water bath set at 37° C. throughout the experiment. 2. Aliquots of a sample (20 μl) were extracted at a 48 hour time point as described in the table below.
# 3. After combining the samples with CHOD active reagent and the diffraction buffer, test samples were incubated for about 6 hours in darkness at ambient temperature. 4. The absorbance of a sample was measured photometrically at 365 nm.
# Concentrations of lipid peroxides were calculated by the use of the molar absorptivity of I3^− measured at 365 nm (ε=2.46±0.25×10^4M^−1 cm^−1). This value was determined by adding known concentrations of […] to the CHOD reagent. A stoichiometric relationship (slope=1.02) was observed between the amount of organic peroxides assayed and the concentration of I3^− produced.
# [3] = Lipid peroxide levels in DLPC multilamellar vesicles, C/P 0.2 (triiodide assay); assay type: biochemical; details: for Lipid Peroxide Levels: mean ± S.D.
# Description: The levels of lipid peroxide formation were measured photometrically at specific time points. […] Samples were prepared in a glass test tube as described in the table above. […] Sample tubes were vortexed for 3 min to form MLVs. This assay is based on the principle of the oxidative capacity of lipid peroxides to convert […], which can be measured photometrically at […] (El-Saadani et al., 1989). […] Samples were placed in a water bath set at 37° C. Samples remained in the water bath throughout the experiment except for the temporary removal for time point extractions. • 2. […] • 3. After combining sample time point aliquots with CHOD active reagent and the diffraction buffer as described in the table above, test samples were incubated about 6 hours in darkness at ambient temperature. • 4. The absorbance ([…] nm) of the samples was measured using a spectrophotometer. • 5. […] This value was determined by adding known concentrations of I2 to the CHOD reagent. A stoichiometric relationship (slope=1.02) was observed between the amount of organic peroxides assayed and the concentration of I3^- produced.
# [4] = Oxygen Radical Absorption Capacity (ORAC) of human plasma; assay type: biochemical; details: 1.0 μM
# Description: The comparative effect of COX-2 selective agents on the antioxidant capacity of human plasma was assessed using the Oxygen Radical Absorption Capacity (ORAC) assay. This assay was carried out according to the method of Huang et al., 2002 with fresh plasma using a microplate fluorescence reader in 96 well format with the excitation and emission filters set at 485 and 530 nm respectively.
# human LDL [5] = test: Conjugated diene formation in isolated human LDL (CuSO4-induced oxidation); assay type: biochemical; details: 100 nM
# Description: (§1) The effects of the compounds on lipid peroxidation were tested in isolated human LDL. Human venous blood was collected into vacutainer tubes containing K3EDTA after a 12-hour fast. Plasma was immediately separated by centrifugation at 3000 g for 25 minutes. LDL was obtained from plasma by ultracentrifugation using a procedure similar to that reported by Chung et al, 1986 using discontinuous KBr gradient. The purity of the freshly isolated LDL was assessed by SDS-PAGE using the procedure of Laemmli, 1970.
# (§2) The extent of oxidation was measured for the LDL in the absence and presence of the drugs over a range of concentrations. Malondialdehyde (MDA), a product of lipid oxidation, was measured by the reaction of this aldehyde with thiobarbituric acid in an acid medium to form a stable chromogen, referred to as thiobarbituric-acid-reactive-substances (TBARS). Purified LDL (100 μg protein/ml) was incubated for 30 minutes with either vehicle or an NSAID at various concentrations followed by addition of 50 μM CuSO4 at 37° C. Conjugated diene formation was measured by continuously monitoring the change in absorbance at 234 nm on a Beckman DU 640 spectrophotometer, as described by Esterbauer et al., 1985. Stock solutions were tested for iron contamination, which can contribute independently to lipid peroxidation and assay artifacts.
# human LDL [6] = test: MDA formation (TBARS) in isolated human LDL; assay type: biochemical
# Description: as §1, §2
# [7] = F2-isoprostane formation from DAPC lipid vesicles by GC/NCI-MS; assay type: biochemical; details: 100 nM; vehicle 140±25 ng/100 μl; mean ± S.D.
# Description: F2-Isoprostanes are derived principally from the formation of positioned peroxyl radical isomers of arachidonic acid, endocyclization to protaglandin G2-like structures, and reduction to PGF2-like compounds. Total levels of F2-isoprostanes, in DAPC lipid vesicles prepared in the presence of vehicle or drug, were measured by GC-MS with negative chemical ionization as described by Walter et al., 2000. Peroxidation of lipids occurred over time in the absence of any exogenous initiators at 37° C. F2-Isoprostane formation was also measured independently using mass spectroscopy in a blinded study at the Antioxidant Research Laboratory, Tufts University, Boston, Mass.
# [8] = assay type: physicochemical
# Description: (§3) Determination of aqueous solubility/dispersibility. 30.13 mg of 3 was added to 1 mL of USP-purified water. The sample was rotated for 2 hours, then centrifuged for 5 minutes. After centrifuging, solid was visible in the bottom of the tube. A 125-μL aliquot of the solution was then diluted to 25 mL. The sample was analyzed by UV/Vis spectroscopy at 436 nm, and the absorbance was compared to a standard curve compiled from 4 standards of known concentration. The concentration of the original supernatant was calculated to be 2.85 mg/mL and the absorptivity was 36.94 AU*mL/cm*mg. Slight error may have been introduced by the small size of the original aliquot.
# as §3, with “Next, 30.80” for “Determination of aqueous solubility/dispersibility. 30.13”, “9” for “3”, “411” for “436”, “The concentration of the original supernatant was calculated to be 2.85 mg/mL and the absorptivity was 36.94 AU*mL/cm*mg.” left out
# [9] = tested on: superoxide anion generation from phorbol-ester (PMA)-stimulated PMNs; test: Direct superoxide anion scavenging by EPR spectroscopy (DEPMPO spin trap), isolated human neutrophil assay; assay type: cell-based
# Description: Leukocyte Isolation and Preparation. Human polymorphonuclear leukocytes (PMNs) were isolated from freshly sampled venous blood of a single volunteer by Percoll density gradient centrifugation as described previously. Briefly, each 10 mL of whole blood was mixed with 0.8 mL of 0.1 M EDTA and 25 mL of saline. The diluted blood was then layered over 9 mL of Percoll at a specific density of 1.080 g/mL. After centrifugation at 400×g for 20 min at 20° C., the plasma, mononuclear cell, and Percoll layers were removed. Erythrocytes were subsequently lysed by addition of 18 mL of ice-cold water for 30 s, followed by 2 mL of 10×PIPES buffer (25 mM PIPES, 110 mM NaCl, and 5 mM KCl, titrated to pH 7.4 with NaOH). Cells were then pelleted at 4° C., the supernatant was decanted, and the procedure was repeated. After the second hypotonic cell lysis, cells were washed twice with PAG buffer [PIPES buffer containing 0.003% human serum albumin (HSA) and 0.1% glucose]. Afterward, PMNs were counted by light microscopy on a hemocytometer. The isolation yielded PMNs with a purity of >95%. The final pellet was then suspended in PAG-CM buffer (PAG buffer with 1 mM CaCl2 and 1 mM MgCl2).
# EPR Measurements. All EPR measurements were performed using a Bruker ER 300 EPR spectrometer operating at X-band with a TM110 cavity as previously described. The microwave frequency was measured with a Model 575 microwave counter (EIP Microwave, Inc., San Jose, Calif.). To measure superoxide anion ? generation from phorbol-ester (PMA)-stimulated PMNs, EPR spin-trapping studies were performed using the spin trap DEPMPO (Oxis, Portland, Oreg.) at 10 mM. 1×10^6 PMNs were stimulated with PMA (1 ng/mL) and loaded into capillary tubes for EPR measurements. To determine the radical scavenging ability of 3 and 9 in aqueous and ethanolic formulations, PMNs were pre-incubated for 5 minutes with test compound, followed by PMA stimulation.
# Instrument settings used in the spin-trapping experiments were as follows: modulation amplitude, 0.32 G; time constant, 0.16 s; scan time, 60 s; modulation frequency, 100 kHz; microwave power, 20 milliwatts; and microwave frequency, 9.76 GHz. The samples were placed in a quartz EPR flat cell, and spectra were recorded. The component signals in the spectra were identified and quantified as reported previously.
# [10] = alone at 250 nM, 48 hour incubation at 37° C.
compound,measurement,setting,value
"CC1=C(/C=C/C(C)=C/C=C/C(C)=C/C=C/C=C(C)/C=C/C=C(C)/C=C/C2=C(C)C(=O)[C@@H](O)CC2(C)C)C(C)(C)C[C@H](O)C1=O [Astaxanthin, 3,3′-dihydroxy-β,β′-carotene-4,4′-dione]",decrease in lipid peroxidation vs control,[1]; added together with rofecoxib at equimolar concentration (250 nM),6.5%
same,decrease in lipid peroxidation vs control,[1]; [10],4.4%
same,antioxidant/prooxidant activity,[2],the only antioxidant
same,% increase (+) or decrease (−) of lipid peroxide levels compared to control,"[3]; 24 Hour, carotenoid 1 μM",−6.9%^a
same,Lipid Peroxide Levels,"[3]; 24 Hour, carotenoid 1 μM, control 218 ± 20",203 ± 17 µM
same,% increase (+) or decrease (−) of lipid peroxide levels compared to control,"[3]; 24 Hour, carotenoid 10 μM",−22.5%
same,Lipid Peroxide Levels,"[3]; 24 Hour, carotenoid 10 μM, control 218 ± 20",169 ± 7 µM
same,% increase (+) or decrease (−) of lipid peroxide levels compared to control,"[3]; 48 Hour, carotenoid 1 μM",−12.6%^a
same,Lipid Peroxide Levels,"[3]; 48 Hour, carotenoid 1 μM, control 572 ± 76",500 ± 57 µM
same,% increase (+) or decrease (−) of lipid peroxide levels compared to control,"[3]; 48 Hour, carotenoid 10 μM",−40.7%^a
same,Lipid Peroxide Levels,"[3]; 48 Hour, carotenoid 10 μM, control 572 ± 76",339 ± 42 µM
same,antioxidant/pro-oxidant effect,[3]; C/P 0.2,strong antioxidant effect
CS(=O)(=O)c1ccc(C2=C(c3ccccc3)C(=O)OC2)cc1 [rofecoxib],increase in lipid peroxide levels vs control,[1]; [10],7.4%
same,reduction of ORAC value,[4]; fresh human plasma,34%
same,ORAC value (AUC),[4]; vehicle 28.1±1.2,18.6±1.3
same,decrease in lag time for human LDL conjugated diene formation,human LDL [5],42.8±1.5%
same,effect on MDA levels (TBARS) in human LDL,human LDL [6],marked increases
same,effect on MDA levels (TBARS) in human LDL,"human LDL [6]; 50 nM, 10-fold lower than comparison drugs",significant increase
same,Levels of isoprostanes,[7],190±18 ng/100 μl
"β,ε-carotenyl 3,3′-disuccinate sodium salt [Lutein Disuccinate Sodium Salt]",aqueous solubility/dispersibility,[8],2850 µg/mL
same,Mean (% inhibition) of superoxide anion signal,"[9]; 40% EtOH, 0.1 mM, listed as disodium disuccinate derivative of natural source lutein, sodium salt",did not significantly increase scavenging
same,Mean (% inhibition) of superoxide anion signal,"[9]; 40% EtOH, 0.1 mM, sodium salt",5.0%
same,Mean (% inhibition) of superoxide anion signal,"[9]; Water, 0.1 mM",0%
same,Mean (% inhibition) of superoxide anion signal,"[9]; Water, 1.0 mM",13.0%
same,Mean (% inhibition) of superoxide anion signal,"[9]; Water, 3.0 mM",61.7%
same,Mean (% inhibition) of superoxide anion signal,"[9]; Water, 5.0 mM, listed as disodium disuccinate derivative of natural source lutein, sodium salt",~75%
same,Mean (% inhibition) of superoxide anion signal,"[9]; Water, 5.0 mM, listed as disuccinate lutein sodium salt, sodium salt",75%
same,Mean (% inhibition) of superoxide anion signal,"[9]; Water, 5.0 mM, sodium salt",74.7%
